In PMC11850406, “Large-scale screening of HIV-1 T-cell epitopes restricted by 12 prevalent HLA-A allotypes in Northeast Asia and universal detection of HIV-1-specific CD8^+ T cells” (Frontiers in Microbiology, 2025):
Where two headings read alike, the source gives them in different places. Where no end group is shown, it is not given here.

Columns and labels:
HLA-A0201 = molecular target: T1, HLA-A0201 (Homo sapiens, UniProt P04439, D140Y/D185E/D98H/E176V/E277Q/G131W/G231S/I119V/I121R/I166T/I218V/L300P/L318F/N151K/N90K/P208A/P217A/Q86G/Q94H/R138H/R169H/T345S); assay: cell-based; type: binding; details: for inhibition at 5 µM / inhibition at 15 µM / 5-μM inhibition (%) / 15-μM inhibition (%): 24 h; for inhibition at 5 µM: read-out: 5-μM inhibition (%); for inhibition at 15 µM: read-out: 15-μM inhibition (%)
T1 construct: expressed in transfected cells; host or cells: HMy2.CIR

HLA-A0203 = molecular target: T2, HLA-A0203 (Homo sapiens, UniProt P04439, A173T/D140Y/D185E/D98H/E277Q/G131W/G231S/I119V/I121R/I166T/I218V/L180W/L300P/L318F/N151K/N90K/P208A/P217A/Q86G/Q94H/R138H/R169H/T345S); assay: cell-based; type: binding; details: for inhibition at 5 µM / inhibition at 15 µM / 5-μM inhibition (%) / 15-μM inhibition (%): 24 h; for inhibition at 5 µM: read-out: 5-μM inhibition (%); for inhibition at 15 µM: read-out: 15-μM inhibition (%)
T2 construct: expressed in transfected cells; host or cells: HMy2.CIR

HLA-A3101 = molecular target: T3, HLA-A3101 (Homo sapiens, UniProt P04439, A270S/D185E/E176V/E277Q/F33T/G231S/G80R/H175R/I121M/I218V/I322F/K168Q/L300P/L318F/M331R/P217A/Q94H/R138Q/T323A/T345S/T97I/V358M); assay: Peptide competitive binding assay, HMy2.CIR cells expressing A3101; details: for IC50: read-out: Affinity
T3 construct: expressed in transfected cells; host or cells: HMy2.CIR

HLA-A3303 = HLA-A3303 (Homo sapiens, UniProt P04439, A270S/D185E/E176V/E277Q/E87N/F33T/G231S/H175R/I121M/I218V/I322F/K168Q/L300P/L318F/M331R/P217A/Q86R/Q94H/R138Q/T323A/T345S/T97I/V358M); assay: Peptide competitive binding assay, HMy2.CIR cells expressing A3303; details: for IC50: read-out: Affinity
HLA-A1102 = HLA-A1102 (Homo sapiens, UniProt P04439, A114D/D185E/E176A/E43K/F33Y/L180Q/S129P/T187R); assay: cell-based; type: binding; details: A1102, 24 h, 4°C, flow cytometry; for 5-μM inhibition (%) / inhibition at 5 µM: peptide 5 μM vs FITC-labeled reference peptide 300 nM; for 15-μM inhibition (%) / inhibition at 15 µM: peptide 15 μM vs FITC-labeled reference peptide 300 nM; for inhibition at 5 µM: read-out: 5-μM inhibition (%); for inhibition at 15 µM: read-out: 15-μM inhibition (%)
HLA-A3001 = molecular target: T4, HLA-A3001 (Homo sapiens, UniProt P04439, D140H/D185E/E176W/F33S/G80R/H175R/K168Q/R138E/R41S); assay: cell-based; type: binding; details: A3001, 24 h, 4°C, flow cytometry
T4 construct: expressed in transfected cells; host or cells: HMy2.CIR

HLA-A1101 = molecular target: T5, HLA-A1101 (Homo sapiens, UniProt P04439, A114D/D185E/E176A/F33Y/L180Q/S129P/T187R); assay: cell-based; type: binding
T5 construct: expressed in transfected cells; host or cells: HMy2.CIR

[1] = A0201, peptide 5 μM vs FITC-labeled reference peptide 300 nM, 4°C, flow cytometry
[2] = A0201, peptide 15 μM vs FITC-labeled reference peptide 300 nM, 4°C, flow cytometry
[3] = A0203, peptide 5 μM vs FITC-labeled reference peptide 300 nM, 4°C, flow cytometry
[4] = A0203, peptide 15 μM vs FITC-labeled reference peptide 300 nM, 4°C, flow cytometry
[5] = A3101, peptide 5 μM vs FITC-labeled reference peptide 300 nM, 24 h, 4°C, flow cytometry
[6] = A3101, peptide 15 μM vs FITC-labeled reference peptide 300 nM, 24 h, 4°C, flow cytometry
[7] = A3303, peptide 5 μM vs FITC-labeled reference peptide 300 nM, 24 h, 4°C, flow cytometry
[8] = A3303, peptide 15 μM vs FITC-labeled reference peptide 300 nM, 24 h, 4°C, flow cytometry

SLVDTIAIAV [Peptide P1]
IC50 (HLA-A0201; A0201, class from inhibition at 5 and 15 μM of FITC-labeled reference peptide binding, read-out: Affinity): 5 to 15 µM | inhibition at 5 µM (HLA-A0201; [1]): 38% | inhibition at 15 µM (HLA-A0201; [2]): 78.5% | inhibition at 5 µM (HLA-A0203; [3]): 28.2% | inhibition at 15 µM (HLA-A0203; [4]): 31.9%

MTKILEPFR [Peptide P102]
inhibition at 5 µM (HLA-A3101; [5]): 60.2% | inhibition at 15 µM (HLA-A3101; [6]): 88.3% | IC50 (HLA-A3101): < 5 µM | inhibition at 5 µM (HLA-A3303; [7]): 69.5% | inhibition at 15 µM (HLA-A3303; [8]): 70% | IC50 (HLA-A3303): < 5 µM

QTNSAILMQR [Peptide P105]
5-μM inhibition (%) (HLA-A3303; [7]): 29.22% | 15-μM inhibition (%) (HLA-A3303; [8]): 45.63%

CC[C@H](C)[C@H](NC(=O)[C@H](CO)NC(=O)[C@@H](NC(=O)[C@@H]1CCCN1C(=O)[C@H](CO)NC(=O)[C@H](Cc1ccc(O)cc1)NC(=O)[C@H](CCSC)NC(=O)[C@@H](N)CCCNC(=N)N)C(C)C)C(=O)N[C@@H](CC(C)C)C(=O)O [Peptide P9]
inhibition at 5 µM (HLA-A0201): 0% | inhibition at 15 µM (HLA-A0201): 4.54% | IC50 (HLA-A0203): 5 to 15 µM | inhibition at 5 µM (HLA-A0203): 0% | inhibition at 15 µM (HLA-A0203): 50.1%

ALQTGTEEL [Peptide P8]
5-μM inhibition (%) (HLA-A0201; [1]): 0.00% | 15-μM inhibition (%) (HLA-A0201; [2]): 14.68% | 5-μM inhibition (%) (HLA-A0203; [3]): 0.00% | 15-μM inhibition (%) (HLA-A0203; [4]): 5.56%

YMLKHLVWA [Peptide P7]
5-μM inhibition (%) (HLA-A0201; [1]): 8.94% | 15-μM inhibition (%) (HLA-A0201; [2]): 16.50% | 5-μM inhibition (%) (HLA-A0203; [3]): 3.83% | 15-μM inhibition (%) (HLA-A0203; [4]): 19.15%

AAGTGSSSK [Peptide P86]
5-μM inhibition (%) (HLA-A1102): 1.04% | 15-μM inhibition (%) (HLA-A1102): 3.12%

QMQEDVISL [Peptide P4]
5-μM inhibition (%) (HLA-A0201; [1]): 10.81% | 15-μM inhibition (%) (HLA-A0201; [2]): 44.70% | 5-μM inhibition (%) (HLA-A0203; [3]): 0.00% | 15-μM inhibition (%) (HLA-A0203; [4]): 0.00%

ALTDIVPLT [Peptide P12]
IC50 (HLA-A0201): 5 to 15 µM | inhibition at 5 µM (HLA-A0201; [1]): 28% | inhibition at 15 µM (HLA-A0201; [2]): 72.2%

MVHQPISPR [Peptide P103]
inhibition at 5 µM (HLA-A3101; [5]): 65.4% | inhibition at 15 µM (HLA-A3101; [6]): 79.2% | IC50 (HLA-A3101): < 5 µM | inhibition at 5 µM (HLA-A3303; [7]): 70.2% | inhibition at 15 µM (HLA-A3303; [8]): 99.5% | IC50 (HLA-A3303): < 5 µM | inhibition at 5 µM (HLA-A1102): 3.81% | inhibition at 15 µM (HLA-A1102): 13.4%

RLRPGGRKK [Peptide P89]
5-μM inhibition (%) (HLA-A3001; peptide 5 μM vs FITC-labeled reference peptide 300 nM): 27.40% | 15-μM inhibition (%) (HLA-A3001; peptide 15 μM vs FITC-labeled reference peptide 300 nM): 39.48%

RAKRRVVER [Peptide P98]
IC50 (HLA-A3101; A3101, class from inhibition at 5 and 15 μM of FITC-labeled reference peptide binding): 5 to 15 µM | inhibition at 5 µM (HLA-A3101; [5]): 47.9% | inhibition at 15 µM (HLA-A3101; [6]): 82%

VTGIRKNYR [Peptide P99]
5-μM inhibition (%) (HLA-A3101; [5]): 0.00% | 15-μM inhibition (%) (HLA-A3101; [6]): 15.00%

TFYVDGAASR [Peptide P110]
inhibition at 5 µM (HLA-A3303; [7]): 78.2% | inhibition at 15 µM (HLA-A3303; [8]): 90.1% | IC50 (HLA-A3303): < 5 µM

TSLPKQEQK [Peptide P31]
inhibition at 5 µM (HLA-A1102): 4.16% | inhibition at 15 µM (HLA-A1102): 18% | IC50 (HLA-A1101): < 5 µM | inhibition at 5 µM (HLA-A1101; A1101, peptide 5 μM vs FITC-labeled reference peptide 300 nM, 24 h, 4°C, flow cytometry, read-out: 5-μM inhibition (%)): 75.2% | inhibition at 15 µM (HLA-A1101; A1101, peptide 15 μM vs FITC-labeled reference peptide 300 nM, 24 h, 4°C, flow cytometry, read-out: 15-μM inhibition (%)): 86.5%

MAVFIHNFKR [Peptide P109]
inhibition at 5 µM (HLA-A3303; [7]): 55.1% | inhibition at 15 µM (HLA-A3303; [8]): 56.1% | IC50 (HLA-A3303): < 5 µM

KTIIVHLNK [Peptide P19]
5-μM inhibition (%) (HLA-A0201; [1]): 0.00% | 15-μM inhibition (%) (HLA-A0201; [2]): 4.54%

MYAPPISGR [Peptide P106]
IC50 (HLA-A3303; A3303, class from inhibition at 5 and 15 μM of FITC-labeled reference peptide binding): < 5 µM | inhibition at 5 µM (HLA-A3303; [7]): 72.8% | inhibition at 15 µM (HLA-A3303; [8]): 81.5%

RANSPTSRK [Peptide P88]
5-μM inhibition (%) (HLA-A1102): 0.00% | 15-μM inhibition (%) (HLA-A1102): 0.35%
